Measured values reported in the Deep4Chem optical property database.
“And” between values parts separate entries of the source, which are not always exact repeats. Equal values may be shown once. One block for each compound: values may come before it.

Test: solvent given as SMILES

SMILES: COC(=O)C(Cc1ccc2oc(-c3ccc(-n4c5ccccc5c5ccccc54)cc3)nc2c1)NC(=O)OC(C)(C)C (configuration not stated)
absorption maximum (in C1CCCCC1): 340 nm | absorption maximum (in C1CCOC1): 341.8 nm | absorption maximum (in C1COCCO1): 341.4 nm | absorption maximum (in CC1CCCO1): 341.41 nm | absorption maximum (in CC#N): 340 nm | absorption maximum (in CC(C)(C)O): 341.8 nm | absorption maximum (in CC(C)=O): 340.7 nm | absorption maximum (in CC(C)CC(C)(C)C): 339.9 nm | absorption maximum (in CC(C)O): 340.48 nm | absorption maximum (in CC(O)CO): 342.3 nm | absorption maximum (in CCCCCCCO): 342.5 nm | absorption maximum (in CCCCCCO): 342.59 nm | absorption maximum (in CCCCCO): 340.8 nm | absorption maximum (in CCCCO): 341.8 nm | absorption maximum (in CCO): 340.48 nm | absorption maximum (in CCOC(C)=O): 340.02 nm | absorption maximum (in CCOCC): 339.6 nm | absorption maximum (in CN(C)C=O): 342.11 nm | absorption maximum (in CO): 339.7 nm | absorption maximum (in CS(C)=O): 343.6 nm | absorption maximum (in Cc1ccccc1): 342.61 nm | absorption maximum (in OCCO): 343.21 nm

absorption maximum (in CC#N): 442 nm | absorption maximum (in CN(C)C=O): 490 nm | absorption maximum (in ClCCl): 442 nm
SMILES: CCN(CC)c1ccc(/C=N/c2ccccc2/N=C/c2ccc(N(CC)CC)cc2O)c(O)c1

absorption maximum (in CO): 759 nm | absorption maximum (in O): 754 nm
SMILES: CC1(C)C(/C=C/C=C/C=C/C=C2/N(c3ccc(S(=O)(=O)[O-])cc3)c3ccc(S(=O)(=O)[O-])cc3C2(C)C)=[N+](c2ccc(S(=O)(=O)[O-])cc2)c2ccc(S(=O)(=O)[O-])cc21

absorption maximum (in ClC(Cl)Cl): 489 nm
SMILES: N#CC1=CC(C#Cc2ccccc2)=CC(C#N)=P1(c1ccccc1)c1ccccc1

absorption maximum (in ClC(Cl)Cl): 486 nm
SMILES: CCCCCCCCCCCCCCOc1ccc(C#Cc2cc3nc4c(OCCCCCCCCCCCC)cc5c6cc(OCCCCCCCCCCCC)c(OCCCCCCCCCCCC)cc6c6cc(OCCCCCCCCCCCC)c(OCCCCCCCCCCCC)cc6c5c4nc3cc2C#Cc2ccc(OCCCCCCCCCCCCCC)cc2)cc1

SMILES: CN(C)c1ccc(C(=O)Nc2ccc(F)cc2)cc1
absorption maximum (in C1CCCCC1): 307 nm | absorption maximum (in C1CCOC1): 311 nm | absorption maximum (in CC#N): 314 nm | absorption maximum (in CCOCC): 307 nm

absorption maximum (in ClCCl): 608 nm
SMILES: CCOC(=O)COc1ccc(/C=C/C2=C3C(C)=CC(C)=[N+]3[B-](F)(F)n3c2c2ccccc2c3-c2[nH]c(C)cc2C)cc1

absorption maximum (in C1CCOC1): 386 nm
SMILES: COc1ccc(-c2cnc3nn4ccccc4c3c2)cc1

absorption maximum (in C1COCCO1): 363 nm
SMILES: O=C1OC(c2ccccc2)=N/C1=C\c1ccccc1

absorption maximum (in CC#N): 593 nm | absorption maximum (in CO): 591 nm | absorption maximum (in ClCCl): 606 nm | absorption maximum (in O): 587 nm
SMILES: CCOC(=O)CC[N+]1=c2cc3c(cc2CCC1)=Cc1c(c2ccc(N(C)C)cc2oc1=O)O3

absorption maximum (in CO): 534 nm | absorption maximum (in ClC(Cl)Cl): 557 nm
SMILES: Cc1nc2c(ccc3c2sc(/C=C/c2ccc(N(C)C)cc2)[n+]3C)s1

SMILES: CC(C)(C)c1ccc2c(c1)c1cc(C(C)(C)C)ccc1n2-c1ccc(-c2nc(-c3ccc(P(=O)(c4ccccc4)c4ccccc4)cc3)nc(-c3ccc(P(=O)(c4ccccc4)c4ccccc4)cc3)n2)cc1
absorption maximum (in C1CCOC1): 364.73 nm | absorption maximum (in CC#N): 361.43 nm | absorption maximum (in CC(C)=O): 366.18 nm | absorption maximum (in CN(C)C=O): 365.92 nm | absorption maximum (in Cc1ccccc1): 375.96 nm | absorption maximum (in ClC(Cl)Cl): 435.78 nm | absorption maximum (in ClCCl): 375.3 nm

absorption maximum (in ClC(Cl)Cl): 534 nm
SMILES: CCCCN1C(=O)c2cc(Br)c3c4c(Br)c(Br)c5c6c(cc(Br)c(c7c(Br)c(Br)c(c2c37)C1=O)c64)C(=O)N(CCCC)C5=O

SMILES: Nc1ccc2c(C(F)(F)F)cc(=O)oc2c1
absorption maximum (in C1CCC2CCCCC2C1): 349 nm | absorption maximum (in C1CCCCC1): 348 nm | absorption maximum (in C1COCCO1): 364 nm | absorption maximum (in CC1CCCCC1): 348 nm | absorption maximum (in CC#N): 365 nm and 367 nm | absorption maximum (in CC(C)=O): 371 nm | absorption maximum (in CC(C)O): 384 nm | absorption maximum (in CCC(C)CC): 347 nm | absorption maximum (in CCCC(C)C): 347 nm | absorption maximum (in CCCCCC): 347 nm | absorption maximum (in CCCCCCCCO): 383 nm | absorption maximum (in CCCCCCO): 384 nm | absorption maximum (in CCCCO): 383 nm | absorption maximum (in CCO): 383 nm | absorption maximum (in CCOC(C)=O): 368 nm | absorption maximum (in CN(C)C=O): 378 nm | absorption maximum (in CO): 378 nm | absorption maximum (in CS(C)=O): 386 nm

absorption maximum (in ClCCl): 580 nm
SMILES: Cc1cc(C)c(C2=C3C=C(/C=C/C(=O)OC(C)(C)C)C=[N+]3[B-](F)(F)n3cc(/C=C/C(=O)OC(C)(C)C)cc32)c(C)c1

absorption maximum (in C1CCOC1): 397 nm
SMILES: CCCCCCCCCc1c2ccccc2cc2c1oc1c3c(c4ccccc4c12)-c1c(c2oc4cc5ccccc5cc4c2c2ccccc12)OCO3

absorption maximum (in ClCCl): 726 nm
SMILES: CC(C)(C)c1cc(-c2c3cc(c(-c4cc(C(C)(C)C)cc(C(C)(C)C)c4)c4ccc([nH]4)c(-c4ccc([N+](=O)[O-])cc4)c4nc(c(-c5ccc([N+](=O)[O-])cc5)c5ccc2[nH]5)C=C4)N=C3)cc(C(C)(C)C)c1

absorption maximum (in C1COCCO1): 480 nm | absorption maximum (in CC(C)O): 490 nm | absorption maximum (in CCCCCCCCO): 489 nm | absorption maximum (in CCCCO): 491 nm | absorption maximum (in CCCO): 495 nm | absorption maximum (in CCO): 498 nm | absorption maximum (in CO): 498 nm | absorption maximum (in CS(C)=O): 491 nm | absorption maximum (in ClC(Cl)Cl): 500 nm | absorption maximum (in ClCCl): 500 nm
SMILES: CN(C)c1ccc(/C=C/c2cc[n+](Cc3cc(C[n+]4ccc(/C=C/c5ccc(N(C)C)cc5)cc4)cc(C[n+]4ccc(/C=C/c5ccc(N(C)C)cc5)cc4)c3)cc2)cc1

absorption maximum (in CCO): 580 nm | absorption maximum (in O): 590 nm
SMILES: CC/[NH+]=c1\cc2oc3cc(NCCC(=O)NC(C(=O)OC)c4ccccc4)c4ccccc4c3nc-2cc1C (configuration not stated)

absorption maximum (in CCO): 401 nm | absorption maximum (in ClC(Cl)Cl): 403 nm
SMILES: COc1ccc2c(-c3nc(-c4cccc(C)c4)no3)cc(=O)oc2c1

absorption maximum (in CCO): 319 nm
SMILES: CCOC(=O)c1cc(C(=O)OCC)c2ccccc2n1

SMILES: OC1(c2ccc(-c3cccs3)s2)CCCC1
absorption maximum (in C1CCOC1): 344 nm | absorption maximum (in CC#N): 343 nm | absorption maximum (in CCCCCC): 341 nm | absorption maximum (in CCO): 342 nm | absorption maximum (in OCCOCCO): 347 nm | absorption maximum (in c1ccncc1): 348 nm

absorption maximum (in ClC(Cl)Cl): 483 nm
SMILES: COc1ccc(N(c2ccc(OC)cc2)c2ccc(-c3ccc(C=C(C#N)C#N)cc3)cc2)cc1

SMILES: C=CCOC(=O)C(C#N)=C1C=C(/C=C/c2ccc(N(C)C)cc2)OC(/C=C/c2ccc(N(C)C)cc2)=C1
absorption maximum (in C1CCOC1): 470 nm | absorption maximum (in C1COCCO1): 462 nm | absorption maximum (in CC#N): 476 nm | absorption maximum (in CN(C)C=O): 486 nm | absorption maximum (in Cc1ccccc1): 467 nm | absorption maximum (in ClC(Cl)Cl): 479 nm | absorption maximum (in ClCCCl): 482 nm | absorption maximum (in ClCCl): 481 nm

absorption maximum (in ClCCl): 359 nm
SMILES: CCCCC(CC)COc1ccc2nc(-c3ccc(-c4c(C)noc4C)s3)sc2c1 (configuration not stated)

absorption maximum (in C1CCCCC1): 392 nm | absorption maximum (in CO): 397 nm | absorption maximum (in CS(C)=O): 397 nm | absorption maximum (in ClC(Cl)Cl): 397 nm | absorption maximum (in c1ccccc1): 396 nm
SMILES: CCC1=C(C)C(=O)n2c1cc1[nH]c(C(=O)OC(C)(C)C)c(C)c1c2=O

absorption maximum (in ClCCl): 385 nm
SMILES: Cc1ccc(C#Cc2ccc3nc4ccc(C#Cc5ccc(C)cc5)cn4c(=O)c3c2)cc1

absorption maximum (in ClCCl): 376 nm
SMILES: COc1ccc(-c2c3ccccc3c(-c3ccc(OC)cc3)c3ccccc23)cc1

absorption maximum (in ClCCl): 335 nm
SMILES: Cc1ccc(C(=O)NC(C)(C)C)c2c1ccc1c3ccccc3c3ccccc3c12

SMILES: Fc1c(F)c(-n2c3ccccc3c3ccccc32)c(F)c(F)c1/C=C/C(=C(c1ccccc1)c1ccccc1)c1ccccc1
absorption maximum (in Cc1ccccc1): 360 nm

SMILES: Cc1nnc(-c2cc(-c3nnc(C)o3)c(-n3c4ccccc4c4ccccc43)cc2-n2c3ccccc3c3ccccc32)o1
absorption maximum (in Cc1ccccc1): 359 nm

absorption maximum (in CCO): 378 nm
SMILES: COc1cc(OC)cc(C(=O)OCc2c(C)c(=O)n3c(=O)c(C)c(C)n23)c1

absorption maximum (in C1COCCO1): 354 nm | absorption maximum (in CC#N): 352 nm | absorption maximum (in CO): 342 nm
SMILES: COc1ccc(/C=C/C=C/C2=NC3C(=O)NC(N)=NC3N2[C@H]2C[C@H](O)[C@@H](CO)O2)cc1 (some centres not stated)

absorption maximum (in ClCCl): 326 nm
SMILES: COc1cc(-c2ncc(-c3ccncc3)o2)cc(OC)c1OC

absorption maximum (in CO): 765 nm
SMILES: CC1(C)C(/C=C/C2=C(c3ccc(C(=O)O)cc3)C(=C/C=C3/N(CCCCS(=O)(=O)[O-])c4ccccc4C3(C)C)/CCC2)=[N+](CCCCS(=O)(=O)[O-])c2ccccc21

absorption maximum (in CC#N): 415 nm
SMILES: COC(=O)/C=C/c1sc(-c2ccc(N(C)C)cc2)c(-c2cccnc2)c1N

absorption maximum (in C1COCCO1): 390 nm
SMILES: COc1ccc(C2=N/C(=C\c3ccccc3)C(=O)N2)cc1OC

absorption maximum (in CC#N): 308 nm
SMILES: COc1ccc(C#Cc2ccc3ccc(=O)oc3c2)cc1

absorption maximum (in ClC(Cl)Cl): 314 nm
SMILES: CCCCCCCCc1ccc(-n2c3c4ccccc4nc(-c4ccc(C#N)cc4)c3c3c2c2c(-c4ccc(C#N)cc4)nc4ccccc4c2n3-c2ccc(CCCCCCCC)cc2)cc1

SMILES: COC(=O)/C(C#N)=c1\s/c(=c2/s/c(=C(/C#N)C(=O)OC)c3cc(-c4ccc5c(c4)C(C)(C)c4ccccc4-5)sc23)c2sc(-c3ccc4c(c3)C(C)(C)c3ccccc3-4)cc12
absorption maximum (in Cc1ccccc1): 630 nm

SMILES: COc1ccc2n1[B-](F)(F)[N+]1=C(c3ccccc3)C=CC1=C2c1ccc(C)cc1
absorption maximum (in C1CCCCC1): 532 nm | absorption maximum (in C1CCOC1): 528 nm | absorption maximum (in C1COCCO1): 529 nm | absorption maximum (in CCOC(C)=O): 526 nm | absorption maximum (in CO): 523 nm | absorption maximum (in Cc1ccccc1): 534 nm | absorption maximum (in ClC(Cl)Cl): 530 nm

absorption maximum (in ClCCl): 512 nm
SMILES: c1ccc(-[n+]2c3ccc4cccc5c6cccc7c8cccc9ccc2c(c98)c(c67)c3c45)cc1

SMILES: CC(C)(C)c1ccc(/C=C/c2ccc(N(c3ccc(/C=C/c4ccc(C(C)(C)C)cc4)cc3)c3ccc(-c4nc5ccccc5nc4-c4ccc(N(c5ccc(/C=C/c6ccc(C(C)(C)C)cc6)cc5)c5ccc(/C=C/c6ccc(C(C)(C)C)cc6)cc5)cc4)cc3)cc2)cc1
absorption maximum (in C1CCOC1): 375 nm | absorption maximum (in Cc1ccccc1): 373 nm

SMILES: O=C1c2ccccc2C2=Cc3ccc4ccccc4[n+]3[B-](F)(F)N12
absorption maximum (in CCO): 450 nm | absorption maximum (in Cc1ccccc1): 458 nm | absorption maximum (in ClCCl): 454 nm

absorption maximum (in C1CCOC1): 381 nm
SMILES: CC(C)(C)c1cc2c3c(c1)-c1cccc4c1N(B3N1c3ccccc3Sc3cccc-2c31)c1ccccc1S4
